{
  "source": "patent US12415794B2",
  "about": "(Edgewise Therapeutics, Inc., priority 2018, dated 2025)",
  "origin": "cited, not measured here",
  "tested_on": "embryos from zebrafish model of DMD",
  "settings": "Li and Amer, PLoSONE, 2015; cited from earlier work",
  "data": [
    {"smiles": "Cc1ccc(S(=O)(=O)NCc2ccccc2)cc1", "note": "[N-benzyl-p-tolyl-sulfonamide (BTS), N-benzyl-p-tolyl-sulfonamide]", "values": [
      {"measurement": "protection of muscles from pathological muscle derangement", "value": "protect muscles from pathological muscle derangement"}
    ]}
  ]
}
